Patent US6399349B1, “Human aminopeptidase P gene” (priority 1997, dated 2002)
Like-named read-outs stand apart in the source and are kept apart here. Blank lines part the entries; values can stand above or below the compound they belong to. Where no end group is shown, it is not given here. [ ]: non-standard residue; d: D form. Hyp = O=C(O)[C@@H]1C[C@@H](O)CN1

Legend:
AmP and ACE = assay: Mean systemic arterial blood pressure effects of BK injected i.v. or i.a. (log dose-response curves)
Experimental: To the extent that pulmonary AmP contributes to BK inactivation, saturation of AmP with an inhibitor or alternative substrate should, in effect, potentiate blood pressure effects of i.v. BK.
To clarify relative contributions of ACE and AmP to the metabolic fate of BK administered i.v., blood pressure effects of i.v. BK under control conditions and then after administration of a long-acting ACE inhibitor, RAC-X-65, were compared. After ACE inhibition, BK was injected (i.v. and i.a.) alone or BK co-mixed with APPBz at a dose capable of saturating AmP (2 μmol/kg).

AmP = conditions: cited from earlier work
Pig kidney AmP = biological target: T1, Pig kidney AmP (Sus scrofa, UniProt Q95333); conditions: concentration that derivatizes two H residues per molecule of AmP; cited from earlier work
T1 construct: host or cells: pig kidney
T1 sequence (Q95333 22-649): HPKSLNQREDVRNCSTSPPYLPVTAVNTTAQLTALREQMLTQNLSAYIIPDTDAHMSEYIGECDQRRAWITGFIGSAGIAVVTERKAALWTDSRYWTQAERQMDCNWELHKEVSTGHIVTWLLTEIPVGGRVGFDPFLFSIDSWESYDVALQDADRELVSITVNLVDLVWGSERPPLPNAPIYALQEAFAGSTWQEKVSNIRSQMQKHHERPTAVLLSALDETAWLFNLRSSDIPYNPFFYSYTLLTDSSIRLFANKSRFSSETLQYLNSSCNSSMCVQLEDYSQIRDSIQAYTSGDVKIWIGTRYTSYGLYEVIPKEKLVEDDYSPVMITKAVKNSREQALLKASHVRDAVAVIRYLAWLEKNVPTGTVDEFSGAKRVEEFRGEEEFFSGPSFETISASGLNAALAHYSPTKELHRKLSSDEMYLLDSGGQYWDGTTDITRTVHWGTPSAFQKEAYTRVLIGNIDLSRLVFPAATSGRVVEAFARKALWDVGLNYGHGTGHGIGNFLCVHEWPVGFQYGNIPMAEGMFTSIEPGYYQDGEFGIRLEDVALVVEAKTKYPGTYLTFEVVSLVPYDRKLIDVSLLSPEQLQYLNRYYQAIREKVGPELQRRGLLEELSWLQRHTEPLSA

[1] = biological target: rat lung aminopeptidase P (rat) (UniProt Q99MA2); assay: cell-based or functional assay
guinea pig serum AmP = conditions: in vitro; cited from earlier work
[2] = 2-3 sec, right to left side of the heart; cited from earlier work
[3] = biological target: T2, pulmonary endothelial AmP (Rattus norvegicus, UniProt Q99MA2); assay: in vivo; conditions: read-out: ED50: coinjected dose that reduces hydrolysis of APPBz-3H by half
T2 sequence (Q99MA2 23-650): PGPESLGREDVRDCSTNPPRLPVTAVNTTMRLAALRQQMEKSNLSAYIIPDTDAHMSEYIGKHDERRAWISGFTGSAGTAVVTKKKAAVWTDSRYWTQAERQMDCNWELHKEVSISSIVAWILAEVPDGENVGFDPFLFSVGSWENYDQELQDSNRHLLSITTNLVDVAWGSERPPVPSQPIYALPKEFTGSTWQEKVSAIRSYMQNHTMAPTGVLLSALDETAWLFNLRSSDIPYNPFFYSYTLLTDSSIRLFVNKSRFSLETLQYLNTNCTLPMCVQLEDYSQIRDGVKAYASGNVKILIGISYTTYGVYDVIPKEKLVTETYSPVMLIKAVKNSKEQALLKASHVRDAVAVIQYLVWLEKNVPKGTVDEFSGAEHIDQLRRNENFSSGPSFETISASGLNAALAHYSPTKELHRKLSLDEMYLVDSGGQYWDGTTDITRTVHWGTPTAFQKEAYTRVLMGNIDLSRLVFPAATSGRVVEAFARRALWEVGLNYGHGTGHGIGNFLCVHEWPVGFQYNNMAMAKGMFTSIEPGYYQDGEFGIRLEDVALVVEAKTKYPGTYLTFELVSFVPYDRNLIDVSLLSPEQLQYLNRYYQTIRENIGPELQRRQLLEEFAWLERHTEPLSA
Experimental: (§1) The immediate metabolic fate of the AmP synthetic substrate Arg-Pro-Pro-[^3H]benzylamide (APPBz-^3H) (20 Ci/mmol) during a single transit from the right heart to the left was examined. Effects of increasing quantities of carrier APPBz and alternative AmP substrates such as bradykinin (BK) and des-Arg^9-BK (31) were then measured.

[4] = biological target: T2, pulmonary endothelial AmP; conditions: coinjected with tracer APPBz-3H
Experimental: as §1

Compound: C[C@H](N[C@@H](CCC(=O)Nc1ccccc1)C(=O)O)C(=O)N1CCC[C@H]1C(=O)O (racemic) [RAC-X-65]
factor by which i.v. BK curves lay to the right of i.a. curves after ACE inhibition (AmP and ACE; after ACE inhibition): about four | effect of ACE inhibition on BK log dose-response curves (AmP and ACE; long-acting ACE inhibitor, BK i.v. and i.a.): shifted both i.v. and i.a. log dose-response curves leftward

Compound: CCN1C(=O)C=CC1=O [N-ethylmaleimide]
inhibition of AmP (AmP): not inhibited

Compound: CCOC(=O)OC(=O)OCC [diethylpyrocarbonate]
inactivation of pig kidney AmP (Pig kidney AmP): completely inactivated

Compound: NC(=O)CI [iodoacetamide]
inhibition of AmP (AmP): not inhibited

Compound: O=C(O)c1cc[c]([Hg+])cc1.[OH-] [p-hydroxy-mercuribenzoate]
inhibition of AmP (AmP; low concentration (~10 nM)): ~70%

dose that completely inhibits the hydrolysis of coinjected APPBz-^3H [1]: 2 µmol/kg | dose that reduces by half the fractional hydrolysis of coinjected APPBz-^3H in a single pulmonary transit in vivo [1]: 42 nmol/kg b.w.
Compound: Arg-Pro-Pro-benzylamide (peptide)

Compound: Gly-Pro-Hyp-Gly-Ala-Gly (GP[Hyp]GAG) [AAP, putative hormone called antiarrhythmic peptide]
binding of AAP by AmP (guinea pig serum AmP): high affinity

Compound: RPPGFSPFR [BK, Arg-Pro-Pro-Gly-Phe-Ser-Pro-Phe-Arg]
degradation of BK by AmP alone (AmP and ACE; computed from 4-fold potentiation, PF=2^n, less than three sec): 75% | number of half-lifes BK is degraded through in a single transit [2]: 5-8 half-lifes | ED50 [3]: 0.013 µmol/kg

Compound: bradykinin (peptide)
dose that reduces by half the hydrolysis of coinjected APPBz-^3H in vivo [1]: 13 nmol/kg

ED50: coinjected dose that reduces hydrolysis of APPBz-3H by half [4]: 30 nmol/kg
Compound: des-Arg^1-BK: BK fragment formed by AmP; not a substrate but binds to the catalytic site (PPGFSPFR)
affinity for AmP relative to BK (AmP): as great an affinity for AmP as BK itself

ED50: coinjected dose that reduces hydrolysis of APPBz-3H by half [4]: 107 nmol/kg
Compound: des-Arg^9-BK: alternative AmP substrate, bradykinin lacking Arg9 (RPPGFSPF)

ED50 for inhibition of the hydrolysis of coinjected APPBz-^3H in vivo [1]: 107 nmol/kg
Compound: des-Arg^9-bradykinin (peptide)
